Measurements published in the supplement of paper PMC9151546.
Where a name gives a salt, the structure may show the parent alone.

What was measured:
CHO-K1 [1] = test: benchmark concentration for 60% increase in hypodiploid frequency (BMC60); higher = less potent aneugen; settings: S9 metabolic activation: without S9
Procedure: (§1)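 Benchmark concentration modelling (PROAST, Hill/exponential model families) of the 19-concentration flow-cytometric micronucleus assay in CHO-K1 cells, with and without rat liver S9. Only non-cytotoxic and adequate (relative survival >=40%) concentrations were used. BMR was a 30% increase in %MN (BMC30) or a 60% increase in %hypodiploid (BMC60) over control.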

CHO-K1 [2] = test: benchmark concentration for 30% increase in micronucleus frequency (BMC30); higher = less potent clastogen
Procedure: as §1

[3] = S9 metabolic activation: with S9
[4] = S9 metabolic activation: without S9

| SMILES | benchmark concentration (CHO-K1 [1]) [µM] | also measured |
| --- | --- | --- |
| OCCC(F)(F)C(F)(F)C(F)(F)C(F)(F)C(F)(F)C(F)(F)C(F)(F)C(F)(F)F [1,1,2,2-Tetrahydroperfluoro-1-decanol] | 95 | – |
| c1ccc2n[nH]nc2c1 [1,2,3-Benzotriazole] | 93 | – |
| Clc1cccc(Cl)c1Cl [1,2,3-Trichlorobenzene] | 32 | – |
| Clc1cc(Cl)c(Cl)cc1Cl [1,2,4,5-Tetrachlorobenzene] | 110 | – |
| Clc1ccc(Cl)c(Cl)c1 [1,2,4-Trichlorobenzene] | 100 | – |
| O=c1[nH]sc2ccccc12 [1,2-Benzisothiazolin-3-one] | – | benchmark concentration (CHO-K1 [2]; [3]): 32 µM |
| Cc1ccc([N+](=O)[O-])cc1C [1,2-Dimethyl-4-nitrobenzene] | 89 | – |
| Nc1ccccc1N [1,2-Phenylenediamine] | 47 | – |
| CC1(C)C(=O)N(Br)C(=O)N1Br [1,3-Dibromo-5,5-dimethylhydantoin] | 93 | – |
| OC(CCl)CCl [1,3-Dichloro-2-propanol] | 75 | – |
| Clc1cccc(Cl)c1 [1,3-Dichlorobenzene] | 160 | – |
| O=C=NCCCCCCN=C=O [1,6-Diisocyanatohexane] | 100 | – |
| O=[N+]([O-])c1ccc(Cl)cc1 [1-Chloro-4-nitrobenzene] | 120 | – |
| CCCCCCCCCCO [1-Decanol] | 120 | – |
| O=c1[nH]cnc2c1ncn2[C@H]1CC[C@@H](CO)O1 [2',3'-Dideoxyinosine] | – | benchmark concentration (CHO-K1 [2]; [4]): 84 µM |
| CC(C)C(=O)OCC(C)(C)C(OC(=O)C(C)C)C(C)C (stereo not drawn) [2,2,4-Trimethyl-1,3-pentanediol diisobutyrate] | 190 | – |
| c1ccc2occc2c1 [2,3-Benzofuran] | 61 | – |
| Cc1ccc(O)c(C)c1 [2,4-Dimethylphenol] | – | benchmark concentration (CHO-K1 [2]; [4]): 79 µM |
| CC(C)(C)OOC(C)(C)CCC(C)(C)OOC(C)(C)C [2,5-Dimethyl-2,5-di-(tert-butylperoxy)hexane] | 60 | – |
| Cc1cccc(C)c1N [2,6-Dimethylaniline] | 87 | – |
| CCCCOCCOCCO [2-(2-Butoxyethoxy)ethanol] | 100 | – |
| Oc1ccccc1Cl [2-Chlorophenol] | 97 | – |
| CCCCC(CC)CO (stereo not drawn) [2-Ethyl-1-hexanol] | 56 | – |
| COc1ccc([N+](=O)[O-])cc1N [2-Methoxy-5-nitroaniline] | 90 | – |

| SMILES | benchmark concentration (CHO-K1 [1]) [µM] | also measured |
| --- | --- | --- |
| COc1cc(-c2ccc(N)c(OC)c2)ccc1N [3,3'-Dimethoxybenzidine dihydrochloride] | 7.6 | – |
| Cc1ccc(N)c(N)c1 [3,4-Diaminotoluene] | 52 | – |
| CC(C)=CCC/C(C)=C/C=O [3,7-Dimethyl-2,6-octadienal] | 28 | – |
| Cc1cn(C2CC(N=[N+]=[N-])C(CO)O2)c(=O)[nH]c1=O (stereo not drawn) [3-Azido-3-deoxythymidine] | 72 | – |
| CC(=O)OCCC(C)C [3-Methylbutyl acetate] | 13 | – |
| Nc1ccc(Cc2ccc(N)cc2)cc1 [4,4'-Methylenedianiline] | 74 | – |
| Nc1ccc(C(=O)O)cc1 [4-Aminobenzoic acid] | 110 | – |
| C[C@]12CCC(=O)C=C1CC[C@@H]1[C@@H]2CC[C@]2(C)C(=O)CC[C@@H]12 [4-Androstene-3,17-dione] | 34 | – |
| Nc1ccc(Cl)cc1N [4-Chloro-1,2-diaminobenzene] | – | benchmark concentration (CHO-K1 [2]; [4]): 41 µM |
| Cc1ccc(Cl)cc1 [4-Chlorotoluene] | 60 | – |
| CCCCCCc1ccc(O)cc1O [4-Hexylresorcinol] | < 4.5 | – |
| COc1cc(C=O)ccc1O [4-Hydroxy-3-methoxybenzaldehyde] | 53 | – |
| C1CC2OC2CC1C1CO1 (stereo not drawn) [4-Vinyl-1-cyclohexene dioxide] | 35 | – |
| Cc1ccc(N)cc1O [5-Amino-2-methylphenol] | 5.3 | – |
| Oc1cccc2cccnc12 [8-Hydroxyquinoline] | – | benchmark concentration (CHO-K1 [2]; [3]): 16 µM; benchmark concentration (CHO-K1 [2]; [4]): 26 µM |
| C/C=C/c1ccc(OC)cc1 [(E)-Anethole] | 35 | – |
| CC(N)=O [Acetamide] | – | benchmark concentration (CHO-K1 [2]; [4]): 5.8 µM |
| CC(=O)Nc1ccc(O)cc1 [Acetaminophen] | 36 | – |
| CC(=O)c1ccccc1 [Acetophenone] | 50 | – |
| CSC(C)(C)/C=N/O [Aldicarb oxime] | 40 | – |
| c1ccc2cc3ccccc3cc2c1 [Anthracene] | 51 | – |
| ClC(Cl)c1ccccc1 [Benzal chloride] | 91 | – |
| O=C(O)c1ccccc1 [Benzoic acid] | 110 | – |
